Experimental data from ChEMBL document CHEMBL4477225, “Development of a cell viability assay to assess drug metabolite structure-toxicity relationships” (Bioorg Med Chem Lett, 2016).

Key:
Format in all cases: ADME, cell-based
Settings in all cases: recombinant enzyme
Cytochrome P450 2C9 [1] = target: T1, Cytochrome P450 2C9 (Homo sapiens, UniProt P11712); experiment: Drug activation in human Hep3B cells assessed as human CYP2C9-mediated drug metabolism-induced cytotoxicity measured as decrease in cell viability at 28.5 uM pre-incubated with BSO for 18 hrs followed by incubation with compound for 3 hrs in presence of NADPH measured after 24 hrs in absence of compound, CYP3A4 and NADPH by cell titer-glo luminescence assay relative to BSO alone
Cytochrome P450 2D6 [2] = target: T2, Cytochrome P450 2D6 (Homo sapiens, UniProt P10635); experiment: Drug activation in human Hep3B cells assessed as human CYP2D6-mediated drug metabolism-induced cytotoxicity measured as decrease in cell viability at 6.8 uM pre-incubated with BSO for 18 hrs followed by incubation with compound for 3 hrs in presence of NADPH measured after 24 hrs in absence of compound, CYP3A4 and NADPH by cell titer-glo luminescence assay relative to BSO alone
Cytochrome P450 3A4 [3] = target: T3, Cytochrome P450 3A4 (Homo sapiens, UniProt P08684); experiment: Drug activation in human Hep3B cells assessed as human CYP3A4-mediated drug metabolism-induced cytotoxicity measured as decrease in cell viability at 6.5 uM pre-incubated with BSO for 18 hrs followed by incubation with compound for 3 hrs in presence of NADPH measured after 24 hrs in absence of compound, CYP3A4 and NADPH by cell titer-glo luminescence assay relative to BSO alone
Cytochrome P450 2C9 [4] = target: T1, Cytochrome P450 2C9; experiment: Drug activation in human Hep3B cells assessed as human CYP2C9-mediated drug metabolism-induced cytotoxicity measured as decrease in cell viability at 7.6 uM pre-incubated with BSO for 18 hrs followed by incubation with compound for 3 hrs in presence of NADPH measured after 24 hrs in absence of compound, CYP3A4 and NADPH by cell titer-glo luminescence assay relative to BSO alone
Cytochrome P450 3A4 [5] = target: T3, Cytochrome P450 3A4; experiment: Drug activation in human Hep3B cells assessed as human CYP3A4-mediated drug metabolism-induced cytotoxicity measured as decrease in cell viability at 9.6 uM pre-incubated with BSO for 18 hrs followed by incubation with compound for 3 hrs in presence of NADPH measured after 24 hrs in absence of compound, CYP3A4 and NADPH by cell titer-glo luminescence assay relative to BSO alone
Cytochrome P450 2D6 [6] = target: T2, Cytochrome P450 2D6; experiment: Drug activation in human Hep3B cells assessed as human CYP2D6-mediated drug metabolism-induced cytotoxicity measured as decrease in cell viability at 12.8 uM pre-incubated with BSO for 18 hrs followed by incubation with compound for 3 hrs in presence of NADPH measured after 24 hrs in absence of compound, CYP3A4 and NADPH by cell titer-glo luminescence assay relative to BSO alone
Cytochrome P450 3A4 [7] = target: T3, Cytochrome P450 3A4; experiment: Drug activation in human Hep3B cells assessed as human CYP3A4-mediated drug metabolism-induced cytotoxicity measured as decrease in cell viability at 0.3 uM pre-incubated with BSO for 18 hrs followed by incubation with compound for 3 hrs in presence of NADPH measured after 24 hrs in absence of compound, CYP3A4 and NADPH by cell titer-glo luminescence assay relative to BSO alone
Cytochrome P450 2D6 [8] = target: T2, Cytochrome P450 2D6; experiment: Drug activation in human Hep3B cells assessed as human CYP2D6-mediated drug metabolism-induced cytotoxicity measured as decrease in cell viability at 3.4 uM pre-incubated with BSO for 18 hrs followed by incubation with compound for 3 hrs in presence of NADPH measured after 24 hrs in absence of compound, CYP3A4 and NADPH by cell titer-glo luminescence assay relative to BSO alone
Cytochrome P450 2C9 [9] = target: T1, Cytochrome P450 2C9; experiment: Drug activation in human Hep3B cells assessed as human CYP2C9-mediated drug metabolism-induced cytotoxicity measured as decrease in cell viability at 2.8 uM pre-incubated with BSO for 18 hrs followed by incubation with compound for 3 hrs in presence of NADPH measured after 24 hrs in absence of compound, CYP3A4 and NADPH by cell titer-glo luminescence assay relative to BSO alone
Cytochrome P450 2D6 [10] = target: T2, Cytochrome P450 2D6; experiment: Drug activation in human Hep3B cells assessed as human CYP2D6-mediated drug metabolism-induced cytotoxicity measured as decrease in cell viability at 3 uM pre-incubated with BSO for 18 hrs followed by incubation with compound for 3 hrs in presence of NADPH measured after 24 hrs in absence of compound, CYP3A4 and NADPH by cell titer-glo luminescence assay relative to BSO alone
Cytochrome P450 3A4 [11] = target: T3, Cytochrome P450 3A4; experiment: Drug activation in human Hep3B cells assessed as human CYP3A4-mediated drug metabolism-induced cytotoxicity measured as decrease in cell viability at 2.2 uM pre-incubated with BSO for 18 hrs followed by incubation with compound for 3 hrs in presence of NADPH measured after 24 hrs in absence of compound, CYP3A4 and NADPH by cell titer-glo luminescence assay relative to BSO alone
Cytochrome P450 2C9 [12] = target: T1, Cytochrome P450 2C9; experiment: Drug activation in human Hep3B cells assessed as human CYP2C9-mediated drug metabolism-induced cytotoxicity measured as decrease in cell viability at 25.3 uM pre-incubated with BSO for 18 hrs followed by incubation with compound for 3 hrs in presence of NADPH measured after 24 hrs in absence of compound, CYP3A4 and NADPH by cell titer-glo luminescence assay relative to BSO alone
Cytochrome P450 2D6 [13] = target: T2, Cytochrome P450 2D6; experiment: Drug activation in human Hep3B cells assessed as human CYP2D6-mediated drug metabolism-induced cytotoxicity measured as decrease in cell viability at 188.9 uM pre-incubated with BSO for 18 hrs followed by incubation with compound for 3 hrs in presence of NADPH measured after 24 hrs in absence of compound, CYP3A4 and NADPH by cell titer-glo luminescence assay relative to BSO alone
Cytochrome P450 2C9 [14] = target: T1, Cytochrome P450 2C9; experiment: Drug activation in human Hep3B cells assessed as human CYP2C9-mediated drug metabolism-induced cytotoxicity measured as decrease in cell viability at 150 uM pre-incubated with BSO for 18 hrs followed by incubation with compound for 3 hrs in presence of NADPH measured after 24 hrs in absence of compound, CYP3A4 and NADPH by cell titer-glo luminescence assay relative to BSO alone
Cytochrome P450 3A4 [15] = target: T3, Cytochrome P450 3A4; experiment: Drug activation in human Hep3B cells assessed as human CYP3A4-mediated drug metabolism-induced cytotoxicity measured as decrease in cell viability at 154.5 uM pre-incubated with BSO for 18 hrs followed by incubation with compound for 3 hrs in presence of NADPH measured after 24 hrs in absence of compound, CYP3A4 and NADPH by cell titer-glo luminescence assay relative to BSO alone

T3 sequence (P08684 whole entry): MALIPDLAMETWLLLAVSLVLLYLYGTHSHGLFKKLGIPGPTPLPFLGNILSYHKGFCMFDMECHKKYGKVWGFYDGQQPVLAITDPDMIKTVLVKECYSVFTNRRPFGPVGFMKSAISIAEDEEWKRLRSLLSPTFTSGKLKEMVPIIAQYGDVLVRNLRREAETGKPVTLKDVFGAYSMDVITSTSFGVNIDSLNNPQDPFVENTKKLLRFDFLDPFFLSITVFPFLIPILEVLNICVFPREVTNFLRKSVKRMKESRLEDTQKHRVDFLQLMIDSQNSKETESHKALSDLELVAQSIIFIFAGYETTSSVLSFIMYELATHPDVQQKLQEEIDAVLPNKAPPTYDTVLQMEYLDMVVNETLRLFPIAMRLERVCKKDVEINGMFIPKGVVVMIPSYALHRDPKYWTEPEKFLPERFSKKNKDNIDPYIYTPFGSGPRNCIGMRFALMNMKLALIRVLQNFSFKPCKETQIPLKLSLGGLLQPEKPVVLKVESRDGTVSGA
T2 sequence (P10635 whole entry): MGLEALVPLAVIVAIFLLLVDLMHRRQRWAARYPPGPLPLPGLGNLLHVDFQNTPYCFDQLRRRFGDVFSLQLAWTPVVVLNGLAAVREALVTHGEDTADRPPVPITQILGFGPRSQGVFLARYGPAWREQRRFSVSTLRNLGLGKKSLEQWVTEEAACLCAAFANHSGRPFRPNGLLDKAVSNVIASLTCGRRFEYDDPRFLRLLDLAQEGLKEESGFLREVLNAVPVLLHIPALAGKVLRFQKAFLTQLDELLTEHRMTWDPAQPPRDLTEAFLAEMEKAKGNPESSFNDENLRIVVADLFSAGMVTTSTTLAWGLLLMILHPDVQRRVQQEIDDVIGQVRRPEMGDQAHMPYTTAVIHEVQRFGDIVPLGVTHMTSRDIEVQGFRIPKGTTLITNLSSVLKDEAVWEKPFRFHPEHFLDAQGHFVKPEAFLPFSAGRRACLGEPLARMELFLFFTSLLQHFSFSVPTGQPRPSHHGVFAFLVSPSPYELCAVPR
T1 sequence (P11712 whole entry): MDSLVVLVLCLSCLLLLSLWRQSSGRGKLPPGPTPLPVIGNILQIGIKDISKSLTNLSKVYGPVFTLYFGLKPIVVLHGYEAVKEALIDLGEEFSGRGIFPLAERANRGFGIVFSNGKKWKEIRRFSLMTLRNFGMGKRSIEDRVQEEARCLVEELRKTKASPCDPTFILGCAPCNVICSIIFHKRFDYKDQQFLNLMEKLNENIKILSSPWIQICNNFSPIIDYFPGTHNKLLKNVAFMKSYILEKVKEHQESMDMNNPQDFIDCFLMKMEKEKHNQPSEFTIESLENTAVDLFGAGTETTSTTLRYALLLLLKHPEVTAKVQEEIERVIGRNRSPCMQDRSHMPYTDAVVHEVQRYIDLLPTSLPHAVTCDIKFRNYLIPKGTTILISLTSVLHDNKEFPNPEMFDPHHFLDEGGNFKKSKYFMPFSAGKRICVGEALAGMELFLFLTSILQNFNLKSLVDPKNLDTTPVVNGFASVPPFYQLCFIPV

CC1=C(CC(=O)O)c2cc(F)ccc2/C1=C\c1ccc([S+](C)[O-])cc1 (stereo not given)
fold change (FC) (Cytochrome P450 2C9 [1]): 1.6 | fold change (FC) (Cytochrome P450 2D6 [2]): 6.7 | fold change (FC) (Cytochrome P450 3A4 [3]): 6.9

CCC[C@@]1(CCc2ccccc2)CC(O)=C([C@H](CC)c2cccc(NS(=O)(=O)c3ccc(C(F)(F)F)cn3)c2)C(=O)O1
fold change (FC) (Cytochrome P450 2C9 [4]): 1.6 | fold change (FC) (Cytochrome P450 3A4 [5]): 1.3 | fold change (FC) (Cytochrome P450 2D6 [6]): 1

CC(CCc1ccc(O)cc1)NCCc1ccc(O)c(O)c1 (stereo not given) [DOBUTAMINE]
fold change (FC) (Cytochrome P450 3A4 [7]): 1023.9 | fold change (FC) (Cytochrome P450 2D6 [8]): 89.2 | fold change (FC) (Cytochrome P450 2C9 [9]): 108.1

CC(C)NCC(O)c1ccc(O)c(O)c1 (stereo not given) [ISOPROTERENOL]
fold change (FC) (Cytochrome P450 2D6 [10]): 100.1 | fold change (FC) (Cytochrome P450 3A4 [11]): 135.8 | fold change (FC) (Cytochrome P450 2C9 [12]): 11.8

CS(=O)(=O)CCNCc1ccc(-c2ccc3ncnc(Nc4ccc(OCc5cccc(F)c5)c(Cl)c4)c3c2)o1 [LAPATINIB]
fold change (FC) (Cytochrome P450 2D6 [13]): 0.2 | fold change (FC) (Cytochrome P450 2C9 [14]): 0.3 | fold change (FC) (Cytochrome P450 3A4 [15]): 0.3
